Tests used:
[1] = test system: CX3CR1^+ CD8^+ T cells; type: cell-based, human
Method: FIG. 7 is a graph plotting CX3CR1^+ CD8^+ and CX3CR1^− CD8^+ T cell survival during treatment with doxorubicin (Dox) in vitro. […] N=4 donors.
(§1) Stimulation and culture of human T cells: Human CD8^+ T cells were purified using a human CD8^+ T cell enrichment kit (Stemcell). CD8^+ T cells were incubated with chemotherapy drugs (paclitaxel, carboplatin, or doxorubicin), either alone or with T cell activators (DYNABEADS®, human T-activator CD3/CD28 beads) for 24-48 hours, followed with staining for CX3CR1 and Granzyme B. ABCB1 inhibitor PGP4008 was purchased from Enzo Life Sciences (Farmingdale, N.Y.).
To determine the effect of chemotherapeutic treatment on survival of CX3CR1^+ and CX3CR1^− CD8^+ T cells, subsets of these cells were isolated, placed in 96 well plates at 2×10^5 cells/well, and incubated with doxorubicin (Dox) at 0.5 μg/ml for 40 hours.

[2] = test system: CX3CR1^+ CD8^+ T cells; assay: CTL function (CD107a expression, IFN-γ production) of CD8+ T cells with ABCB1 inhibitor with or without CP; type: cell-based, human; details: anti-CD3/CD28 beads 24 hours
Method: as §1
Since the pharmacodynamics of doxorubicin may not be able to exactly reflect the efflux of carboplatin and paclitaxel (CP), and these drugs cannot be directly tracked due to lack of fluorescent capability, the impact of the drug transporter inhibitor on the function of T cells in the presence of CP was examined to determine whether T cell function might be dampened due to the reduced ability of T cells to efflux CP. ABCB1 transporter inhibitor (PGP4008) was incubated with resting or activated human primary CD8^+ T cells in vitro in the presence of CP. T cell function was measured by based pm degranulation (CD107a expression) and intracellular IFN-γ production.

[3] = test system: CX3CR1^+ CD8^+ T cells; assay: IL-15 treatment of human PBMC in vitro (proliferation/expansion of CX3CR1+ CD8+ T cells); type: cell-based
Method: FIG. 8A is a flow cytometry plot showing representative CD122 expression by CX3CR1^+ CD8^+ T cells. FIG. 8B is a graph plotting CD122 expression by CX3CR1^+ and CX3CR1^− CD8^+ T cells in PBMC after incubation with PHA-L for 48 hours. […] FIG. 8C is a graph plotting proliferation of CX3CR1^+ CD8^+ T cells treated in vitro with human IL-15 for 48 hours.
FIG. 9 is a graph plotting % CX3CR1^+ Granzyme CD8^+ T cells among human peripheral blood mononuclear cells (PBMC) cultured with graded concentrations of rh-IL-15 for 24 hours in vitro.
For at least a couple of reasons, IL-15 may improve anti-PD-1 therapy for non-responsive tumors. First, the transcription of CD122 (IL-2 receptor beta) was increased in CD11a^high CD8^+ T cells in responders 25 compared to non-responders (FIG. 1B). […] Further, human PBMC were incubated with human IL-15 (10 ng/ml) or anti-CD3/CD28 beads for 48 hours, and proliferation of CX3CR1^+ CD8^+ T cells was assessed based on % Ki67^+ cells.
To test whether IL-15 directly contributes to the expansion of CX3CR1^+ Granzyme B^+ CD8^+ T cells, human recombinant IL-15 was incubated for 24 hours with PBMC isolated from healthy human donors, followed by flow cytometry analysis of CX3CR1^+ Granzyme B^+ CD8^+ T cells. […] Thus, IL-15 may improve the efficacy of PD-1 ICI therapy by expanding CX3CR1^+ Granzyme B^+ CD8^+ T cells that are capable of rejecting tumors.

[4] = test system: metastatic melanoma; assay: Salvage chemotherapy added to anti-PD-1 in metastatic melanoma patients who failed PD-1 blockade; type: in vivo, human; details: BRAF wild-type metastatic melanoma; pembrolizumab alone, then carboplatin and paclitaxel added, assessed three weeks after the combination
Method: FIGS. 2A to 2C show patient responses to CIT with an increase of CX3CR1^+ Granzyme B^+ CD8^+ T cells. […] Given the disease progression while on pembrolizumab, paclitaxel, and carboplatin (white arrows) were initiated at 175 mg/m^2 and an AUC (area under curve) of 5 every 3 weeks for 2 cycles in combination with pembrolizumab. The patient received total of 12 cycles of pembrolizumab at the end of the follow up. FIG. 2B is a pair of flow cytometry plots showing CX3CR1 levels pre- and post-chemo, as indicated. Following the same schedule of treatment as in FIG. 2A, blood samples were collected for flow analysis of CX3CR1^+ Granzyme B^+ among CD11a^highCD8^+ T cells. […]
Patient information: The studies described herein were conducted according to Declaration of Helsinki principles. […] Response to treatment was evaluated according to standard clinical practice guidelines using Response Evaluation Criteria In Solid Tumors (RECIST) criteria. […]
The frequency of CX3CR1^+ Granzyme B^+ CD8^+ tumor-reactive T cells was examined before and after chemotherapy combined with anti-PD-1 therapy in patients with metastatic melanoma. […] The frequency of CX3CR1^+ Granzyme B^+ cells also was measured and compared in other responders and non-responders prior to and after chemotherapy. […]

[5] = test system: Bim^+ CD8^+ T cells; assay: % Bim+ CD8+ T cells in peripheral blood of metastatic melanoma patients after PD-1 ICI therapy; type: in vivo, human; details: 12 weeks after anti-PD-1 therapy; responders vs non-responders, first cohort
Source text: FIGS. 15A to 15D illustrate changes in Bim^+ CD8^+ T cells in response to PD-1 ICI therapy in patients with MM. FIG. 15A is a graph plotting percentages of changes in the frequency (%) of Bim^+ CD8^+ T cells in MM patients with progressive diseases (P, n=7) and responders (R, n=6) at 12-weeks after PD-1 therapy. **P<0.01, error bars, median with interquartile ranges. FIG. 15B is a series of images of metastatic melanoma (white arrows) in one patient with pseudo-progression at 12 weeks after PD-1 therapy. FIG. 15C is a graph plotting % Bim^+ CD8^+ T cells of the patient of FIG. 15B at baseline, 12 weeks, and 16 weeks after PD-1 therapy. FIG. 15D is a graph plotting the % change of Bim^+ CD8^+ T cells in a second cohort of melanoma patients (total 38) at 12 weeks after PD-1 therapy.
Further studies were conducted to examine and compare the frequency of Bim^+ cells among circulating CD11a^high CD8^+ T cells, since this population of T cells is enriched with tumor-reactive T cells (Liu et al., Oncoimmunology, 2013, 2:e23972). […] In addition, Bim levels (MFI) were positively correlated with PD-1 levels among CD11a^high CD8^+ T cells of cancer patients (FIG. 14B, P<0.01; Duraiswamy et al., J Immunol, 2011, 186:4200-4212). […] Therefore, measurement of the frequency of Bim^+ CD8^+ T cells can be used to the degree to which PD-1 signals have been blocked in cancer patients. […]

O=C(Cc1ccccc1)Nc1c2c(nc3ccccc13)N(Cc1ccccc1)CC2 [PGP4008]
apoptosis of CX3CR1+ CD8+ T cells after addition of ABCB1 inhibitor ([1]; cultured with Doxorubicin 0.5 μg/ml for 40 hours plus PGP4008): increased apoptosis
function of CX3CR1+ CD8+ T cells (CD107a expression, IFN-γ production) ([2]; in the absence of CP): not in the absence of CP
function of CX3CR1+ CD8+ T cells (CD107a expression, IFN-γ production) ([2]; in the presence of CP (carboplatin and paclitaxel)): significantly inhibited the function

COc1cccc2c1C(=O)c1c(O)c3c(c(O)c1C2=O)C[C@@](O)(C(=O)CO)C[C@@H]3O[C@H]1C[C@H](N)[C@H](O)[C@H](C)O1 [doxorubicin]
apoptosis (Annexin V) of CD8+ T cells ([1]; human, 40 h, 0.5 μg/ml): fewer CX3CR1^+ CD8^+ T cells (efflux cells) than CX3CR1^− CD8^+ T cells (non-efflux cells) underwent apoptosis
percentage of Dox+/annexin V low (live) cells ([1]; human, 40 h, 0.5 μg/ml): higher in the CX3CR1^+ subset of CD8^+ T cells than in the CX3CR1^− CD8^+ subset

human IL-15: human recombinant interleukin-15
expansion of CX3CR1+ Granzyme B+ CD8+ T cells among PBMC ([3]; graded concentrations of rh-IL-15, 24 hours, healthy human donors): significantly increased the expansion
proliferation of CX3CR1+ CD8+ T cells (% Ki67+ cells) ([3]; human PBMC, human IL-15 10 ng/ml, 48 hours): increased proliferation

pembrolizumab: anti-PD-1 antibody
disease status (PET/CT) in one patient [4]: rapid progression of metastatic melanoma in the peritoneum and liver
% Bim+ CD8+ T cells [5]: significantly decreased in responders compared to non-responders
